{"source": "paper PMC11357990", "about": "“A first-in-class selective inhibitor of EGFR and PI3K offers a single-molecule approach to targeting adaptive resistance” (Nature Cancer, 2024)", "assay_in_all_cases": "biochemical", "conditions_in_all_cases": "read-out: Binding / ================================================= / % Inhibition of Control Specific Binding", "key": {"[1]": {"target": "T1, 5-HT2A (h) (agonist radioligand) (Homo sapiens, UniProt P28223)", "T1 construct": "gene HTR2A", "set-up": "Eurofins SafetyScreen 87 binding part: inhibition of control specific ligand binding, single concentration"}, "[2]": {"target": "T2, 5-HT1B (h) (antagonist radioligand) (Homo sapiens, UniProt P28222)", "T2 construct": "gene HTR1B"}, "[3]": {"target": "T3, 5-HT3 (h) (antagonist radioligand) (Homo sapiens, UniProt P46098)", "T3 construct": "gene HTR3A", "T3 sequence (P46098 whole entry)": "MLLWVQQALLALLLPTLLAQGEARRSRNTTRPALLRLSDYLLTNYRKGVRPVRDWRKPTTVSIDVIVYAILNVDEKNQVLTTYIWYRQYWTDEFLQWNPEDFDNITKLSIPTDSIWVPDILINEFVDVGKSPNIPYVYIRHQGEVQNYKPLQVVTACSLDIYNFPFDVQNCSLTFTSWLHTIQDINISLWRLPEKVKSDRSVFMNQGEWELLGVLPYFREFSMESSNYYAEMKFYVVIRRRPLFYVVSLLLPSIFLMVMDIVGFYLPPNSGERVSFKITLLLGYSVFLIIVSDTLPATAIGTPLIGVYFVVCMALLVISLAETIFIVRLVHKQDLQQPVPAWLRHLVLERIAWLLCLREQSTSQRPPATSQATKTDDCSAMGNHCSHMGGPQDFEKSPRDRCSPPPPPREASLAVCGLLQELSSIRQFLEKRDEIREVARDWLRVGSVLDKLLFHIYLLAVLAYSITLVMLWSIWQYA"}, "[4]": {"target": "T4, B2 (h) (agonist radioligand) (Homo sapiens, UniProt P30411)", "T4 construct": "gene BDKRB2", "T4 sequence (P30411 whole entry)": "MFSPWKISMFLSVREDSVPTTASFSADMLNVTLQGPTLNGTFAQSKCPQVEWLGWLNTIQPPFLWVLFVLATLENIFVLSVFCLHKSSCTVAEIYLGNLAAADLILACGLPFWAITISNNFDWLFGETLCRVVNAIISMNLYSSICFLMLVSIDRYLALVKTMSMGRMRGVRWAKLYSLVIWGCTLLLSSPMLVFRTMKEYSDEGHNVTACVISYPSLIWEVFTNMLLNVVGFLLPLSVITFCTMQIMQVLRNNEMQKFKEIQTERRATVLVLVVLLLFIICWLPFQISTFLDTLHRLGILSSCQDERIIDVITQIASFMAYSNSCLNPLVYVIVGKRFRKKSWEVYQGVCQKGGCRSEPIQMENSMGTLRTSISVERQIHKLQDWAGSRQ"}, "[5]": {"target": "T5, CB1 (h) (agonist radioligand) (Homo sapiens, UniProt P21554)", "T5 construct": "gene CNR1"}, "[6]": {"target": "T6, CB2 (h) (agonist radioligand) (Homo sapiens, UniProt P34972)", "T6 construct": "gene CNR2", "T6 sequence (P34972 whole entry)": "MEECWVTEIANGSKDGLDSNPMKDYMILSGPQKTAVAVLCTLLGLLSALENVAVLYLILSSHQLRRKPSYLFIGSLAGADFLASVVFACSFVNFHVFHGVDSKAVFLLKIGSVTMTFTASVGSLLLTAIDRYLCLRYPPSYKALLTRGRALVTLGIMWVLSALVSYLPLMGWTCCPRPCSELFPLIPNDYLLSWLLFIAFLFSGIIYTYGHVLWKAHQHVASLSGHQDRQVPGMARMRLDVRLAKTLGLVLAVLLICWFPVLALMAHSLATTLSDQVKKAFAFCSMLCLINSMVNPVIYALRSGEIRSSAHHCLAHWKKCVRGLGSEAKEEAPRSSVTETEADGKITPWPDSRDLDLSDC"}, "[7]": {"target": "T7, CCK2 (CCKB) (h) (agonist radioligand) (Homo sapiens, UniProt P32239)", "T7 construct": "gene CCKBR"}, "[8]": {"target": "CCR1 (h) (agonist radioligand) (Homo sapiens, UniProt P32246)"}, "[9]": {"target": "CXCR2 (IL-8B) (h) (agonist radioligand) (Homo sapiens, UniProt P25025)", "sequence (P25025 whole entry)": "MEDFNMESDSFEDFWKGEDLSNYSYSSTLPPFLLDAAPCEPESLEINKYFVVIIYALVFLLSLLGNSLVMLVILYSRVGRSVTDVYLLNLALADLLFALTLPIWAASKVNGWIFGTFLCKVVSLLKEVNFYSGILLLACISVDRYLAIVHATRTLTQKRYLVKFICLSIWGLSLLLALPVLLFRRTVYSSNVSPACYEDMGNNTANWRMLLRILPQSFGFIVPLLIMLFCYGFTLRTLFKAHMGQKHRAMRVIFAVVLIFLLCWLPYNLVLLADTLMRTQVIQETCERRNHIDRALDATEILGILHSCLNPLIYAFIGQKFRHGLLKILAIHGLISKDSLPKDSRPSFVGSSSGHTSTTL"}, "[10]": {"target": "T8, D1 (h) (antagonist radioligand) (Homo sapiens, UniProt P21728)", "T8 construct": "gene DRD1"}, "[11]": {"target": "T9, D2S (h) (agonist radioligand) (Homo sapiens, UniProt P14416)", "T9 construct": "gene DRD2"}, "[12]": {"target": "T10, ETA (h) (agonist radioligand) (Homo sapiens, UniProt P25101)", "T10 construct": "gene EDNRA"}, "[13]": {"target": "T11, Estrogen ER alpha (h) (agonist radioligand) (Homo sapiens, UniProt P03372)", "T11 construct": "gene ESR1", "T11 sequence (P03372 whole entry)": "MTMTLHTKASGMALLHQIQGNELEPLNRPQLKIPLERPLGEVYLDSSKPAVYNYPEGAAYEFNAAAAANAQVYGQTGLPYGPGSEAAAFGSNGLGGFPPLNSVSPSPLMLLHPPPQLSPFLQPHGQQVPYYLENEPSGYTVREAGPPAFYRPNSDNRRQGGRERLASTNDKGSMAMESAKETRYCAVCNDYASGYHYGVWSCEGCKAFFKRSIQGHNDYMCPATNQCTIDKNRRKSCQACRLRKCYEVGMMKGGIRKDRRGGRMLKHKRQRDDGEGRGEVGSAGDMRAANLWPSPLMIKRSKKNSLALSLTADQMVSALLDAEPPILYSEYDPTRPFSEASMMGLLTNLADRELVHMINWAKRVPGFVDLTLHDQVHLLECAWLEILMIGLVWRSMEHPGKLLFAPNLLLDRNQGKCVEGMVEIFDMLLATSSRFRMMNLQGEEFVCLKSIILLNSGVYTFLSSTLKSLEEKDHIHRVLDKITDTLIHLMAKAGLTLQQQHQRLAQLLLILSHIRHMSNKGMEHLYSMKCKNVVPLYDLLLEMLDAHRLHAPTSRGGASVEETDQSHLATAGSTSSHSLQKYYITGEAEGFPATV"}, "[14]": {"target": "T12, GR (h) (agonist radioligand) (Homo sapiens, UniProt P04150)", "T12 construct": "gene NR3C1"}, "[15]": {"target": "T13, H1 (h) (antagonist radioligand) (Homo sapiens, UniProt P35367)", "T13 construct": "gene HRH1"}, "[16]": {"target": "T14, H2 (h) (antagonist radioligand) (Homo sapiens, UniProt P25021)", "T14 construct": "gene HRH2"}, "[17]": {"target": "T15, M1 (h) (antagonist radioligand) (Homo sapiens, UniProt P11229)", "T15 construct": "gene CHRM1", "T15 sequence (P11229 whole entry)": "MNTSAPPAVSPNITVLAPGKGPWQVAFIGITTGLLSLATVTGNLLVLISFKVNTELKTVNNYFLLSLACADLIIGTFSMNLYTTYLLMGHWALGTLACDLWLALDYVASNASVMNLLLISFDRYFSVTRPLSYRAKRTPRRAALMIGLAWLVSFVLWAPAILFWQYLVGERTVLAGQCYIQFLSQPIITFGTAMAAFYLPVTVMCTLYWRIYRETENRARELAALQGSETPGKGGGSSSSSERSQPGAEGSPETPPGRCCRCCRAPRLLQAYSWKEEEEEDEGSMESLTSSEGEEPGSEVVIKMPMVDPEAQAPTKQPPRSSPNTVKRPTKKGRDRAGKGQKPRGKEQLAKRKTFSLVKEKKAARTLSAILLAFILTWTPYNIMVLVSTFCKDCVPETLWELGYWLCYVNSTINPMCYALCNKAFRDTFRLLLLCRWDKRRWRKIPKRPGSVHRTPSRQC"}, "[18]": {"target": "T16, M3 (h) (antagonist radioligand) (Homo sapiens, UniProt P20309)", "T16 construct": "gene CHRM3", "T16 sequence (P20309 whole entry)": "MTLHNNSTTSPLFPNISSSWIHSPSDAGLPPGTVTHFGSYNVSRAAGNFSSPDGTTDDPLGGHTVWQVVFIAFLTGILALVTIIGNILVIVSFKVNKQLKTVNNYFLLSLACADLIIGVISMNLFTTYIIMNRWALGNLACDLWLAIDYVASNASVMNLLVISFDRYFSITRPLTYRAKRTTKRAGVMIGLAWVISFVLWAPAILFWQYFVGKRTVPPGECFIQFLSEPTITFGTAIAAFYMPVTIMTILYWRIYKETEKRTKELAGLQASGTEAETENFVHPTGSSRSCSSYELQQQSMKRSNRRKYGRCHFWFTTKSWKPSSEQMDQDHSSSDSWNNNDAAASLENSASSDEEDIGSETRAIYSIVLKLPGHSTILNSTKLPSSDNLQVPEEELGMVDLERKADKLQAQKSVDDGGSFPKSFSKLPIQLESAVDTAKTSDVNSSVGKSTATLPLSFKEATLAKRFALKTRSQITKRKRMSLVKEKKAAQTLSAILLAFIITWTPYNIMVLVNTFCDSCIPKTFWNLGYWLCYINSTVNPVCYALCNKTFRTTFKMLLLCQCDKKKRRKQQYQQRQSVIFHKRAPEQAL"}, "[19]": {"target": "T17, MC1 (agonist radioligand) (Mus musculus, UniProt Q01727)", "T17 construct": "gene Mc1r"}, "[20]": {"target": "T18, MC4 (h) (agonist radioligand) (Homo sapiens, UniProt P32245)", "T18 construct": "gene MC4R"}, "[21]": {"target": "T19, N neuronal alpha 4beta 2 (h) (agonist radioligand) (Homo sapiens, UniProt P17787+P43681)", "T19 construct": "gene CHRNB2"}, "[22]": {"target": "T20, PAF (h) (agonist radioligand) (Homo sapiens, UniProt P25105)", "T20 construct": "gene PTAFR"}, "[23]": {"target": "T21, PPARgamma h) (agonist radioligand) (Homo sapiens, UniProt P37231)", "T21 construct": "gene PPARG"}, "[24]": {"target": "T22, PR (h) (agonist radioligand) (Homo sapiens, UniProt P06401)", "T22 construct": "gene PGR"}, "[25]": {"target": "T23, alpha 1B (h) (antagonist radioligand) (Homo sapiens, UniProt P35368)", "T23 construct": "gene ADRA1B", "T23 sequence (P35368 whole entry)": "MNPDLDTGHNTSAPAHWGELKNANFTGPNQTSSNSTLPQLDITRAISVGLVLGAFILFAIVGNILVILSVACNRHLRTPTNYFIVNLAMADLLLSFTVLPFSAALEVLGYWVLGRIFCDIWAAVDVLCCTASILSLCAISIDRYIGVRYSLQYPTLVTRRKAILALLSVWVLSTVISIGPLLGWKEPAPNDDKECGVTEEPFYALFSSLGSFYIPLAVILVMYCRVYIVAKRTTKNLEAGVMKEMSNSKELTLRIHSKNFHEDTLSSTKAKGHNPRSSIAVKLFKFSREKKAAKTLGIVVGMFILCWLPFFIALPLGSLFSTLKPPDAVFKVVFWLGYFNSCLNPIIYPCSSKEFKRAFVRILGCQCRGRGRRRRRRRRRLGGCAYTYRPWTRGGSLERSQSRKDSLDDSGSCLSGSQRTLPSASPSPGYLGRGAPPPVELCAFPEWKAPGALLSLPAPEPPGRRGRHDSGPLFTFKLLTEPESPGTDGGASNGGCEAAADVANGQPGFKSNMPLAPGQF"}, "[26]": {"target": "T24, alpha 1D (h) (antagonist radioligand) (Homo sapiens, UniProt P25100)", "T24 construct": "gene ADRA1D"}, "[27]": {"target": "T25, alpha 2A (h) (antagonist radioligand) (Homo sapiens, UniProt P08913)", "T25 construct": "gene ADRA2A"}, "[28]": {"target": "T26, beta 2 (h) (antagonist radioligand) (Homo sapiens, UniProt P07550)", "T26 construct": "gene ADRB2", "T26 sequence (P07550 whole entry)": "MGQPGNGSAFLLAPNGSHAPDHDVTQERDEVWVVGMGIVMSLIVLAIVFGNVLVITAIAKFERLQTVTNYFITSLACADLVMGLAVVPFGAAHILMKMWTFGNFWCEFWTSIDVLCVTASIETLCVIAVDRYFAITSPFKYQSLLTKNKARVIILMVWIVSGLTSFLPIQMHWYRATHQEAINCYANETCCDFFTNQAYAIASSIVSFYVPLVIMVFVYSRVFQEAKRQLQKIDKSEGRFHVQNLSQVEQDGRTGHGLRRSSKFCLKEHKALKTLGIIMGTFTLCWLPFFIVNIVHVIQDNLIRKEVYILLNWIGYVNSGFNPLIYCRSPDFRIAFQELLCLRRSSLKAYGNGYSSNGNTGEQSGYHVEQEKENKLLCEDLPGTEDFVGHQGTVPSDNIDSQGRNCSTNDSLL"}, "[29]": {"target": "T27, dopamine transporter (h) (antagonist radioligand) (Homo sapiens, UniProt Q01959)", "T27 construct": "gene SLC6A3", "T27 sequence (Q01959 whole entry)": "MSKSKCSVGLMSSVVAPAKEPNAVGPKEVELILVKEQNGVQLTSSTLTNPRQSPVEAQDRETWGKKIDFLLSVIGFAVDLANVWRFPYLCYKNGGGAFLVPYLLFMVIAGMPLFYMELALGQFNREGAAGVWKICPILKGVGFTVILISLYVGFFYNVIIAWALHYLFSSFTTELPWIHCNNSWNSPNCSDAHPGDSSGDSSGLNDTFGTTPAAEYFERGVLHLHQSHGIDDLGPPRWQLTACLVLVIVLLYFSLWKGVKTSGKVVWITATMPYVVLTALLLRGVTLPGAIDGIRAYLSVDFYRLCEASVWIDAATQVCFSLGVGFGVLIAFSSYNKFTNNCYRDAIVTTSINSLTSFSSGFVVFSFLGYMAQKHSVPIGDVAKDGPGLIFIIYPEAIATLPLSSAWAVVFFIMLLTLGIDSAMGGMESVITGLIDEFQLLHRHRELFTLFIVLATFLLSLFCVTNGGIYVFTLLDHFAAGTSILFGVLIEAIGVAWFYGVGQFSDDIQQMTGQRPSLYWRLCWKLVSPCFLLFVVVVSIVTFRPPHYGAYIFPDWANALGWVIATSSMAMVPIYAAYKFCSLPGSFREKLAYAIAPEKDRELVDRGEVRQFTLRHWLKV"}, "[30]": {"target": "T28, kappa (h) (KOP) (agonist radioligand) (Homo sapiens, UniProt P41145)", "T28 construct": "gene OPRK1"}}, "data": [{"smiles": "C[C@@H](Nc1ncnc2ccc(-c3cnc(Cl)c(NS(C)(=O)=O)c3)cc12)c1ccccc1", "note": "[MTX-531, (R)-N-(2-chloro-5-(4-((1-phenylethyl)amino)quinazolin-6-yl)pyridin-3-yl)methane-sulfonamide]", "values": [{"measurement": "inhibition at 10 µM", "setting": "[1]", "value": -5, "unit": "%"}, {"measurement": "inhibition at 10 µM", "setting": "[2]", "value": -21, "unit": "%"}, {"measurement": "inhibition at 10 µM", "setting": "[3]", "value": 10, "unit": "%"}, {"measurement": "inhibition at 10 µM", "setting": "[4]", "value": -1, "unit": "%"}, {"measurement": "inhibition at 10 µM", "setting": "[5]", "value": -2, "unit": "%"}, {"measurement": "inhibition at 10 µM", "setting": "[6]", "value": 39, "unit": "%"}, {"measurement": "inhibition at 10 µM", "setting": "[7]", "value": -8, "unit": "%"}, {"measurement": "inhibition at 10 µM", "setting": "[8]", "value": 0, "unit": "%"}, {"measurement": "inhibition at 10 µM", "setting": "[9]", "value": 4, "unit": "%"}, {"measurement": "inhibition at 10 µM", "setting": "[10]", "value": 2, "unit": "%"}, {"measurement": "inhibition at 10 µM", "setting": "[11]", "value": -4, "unit": "%"}, {"measurement": "inhibition at 10 µM", "setting": "[12]", "value": 1, "unit": "%"}, {"measurement": "inhibition at 10 µM", "setting": "[13]", "value": 6, "unit": "%"}, {"measurement": "inhibition at 10 µM", "setting": "[14]", "value": 3, "unit": "%"}, {"measurement": "inhibition at 10 µM", "setting": "[15]", "value": -7, "unit": "%"}, {"measurement": "inhibition at 10 µM", "setting": "[16]", "value": -1, "unit": "%"}, {"measurement": "inhibition at 10 µM", "setting": "[17]", "value": 22, "unit": "%"}, {"measurement": "inhibition at 10 µM", "setting": "[18]", "value": -4, "unit": "%"}, {"measurement": "inhibition at 10 µM", "setting": "[19]", "value": 2, "unit": "%"}, {"measurement": "inhibition at 10 µM", "setting": "[20]", "value": 1, "unit": "%"}, {"measurement": "inhibition at 10 µM", "setting": "[21]", "value": -8, "unit": "%"}, {"measurement": "inhibition at 10 µM", "setting": "[22]", "value": 1, "unit": "%"}, {"measurement": "inhibition at 10 µM", "setting": "[23]", "value": 48, "unit": "%"}, {"measurement": "inhibition at 10 µM", "setting": "[24]", "value": -14, "unit": "%"}, {"measurement": "inhibition at 10 µM", "setting": "[25]", "value": 1, "unit": "%"}, {"measurement": "inhibition at 10 µM", "setting": "[26]", "value": 17, "unit": "%"}, {"measurement": "inhibition at 10 µM", "setting": "[27]", "value": 5, "unit": "%"}, {"measurement": "inhibition at 10 µM", "setting": "[28]", "value": -6, "unit": "%"}, {"measurement": "inhibition at 10 µM", "setting": "[29]", "value": 12, "unit": "%"}, {"measurement": "inhibition at 10 µM", "setting": "[30]", "value": 7, "unit": "%"}]}]}
